Legend:
PRL-3 = biological target: T1, PRL-3 (Homo sapiens, UniProt O75365); assay: in vitro PTPase assay, recombinant PRL-3; type: biochemical; conditions: for remaining PRL-3 PTPase activity: 0.1-100 μg/ml
T1 construct: cDNAs of human PRL-1, PRL-2 and PRL-3 coding region were derived by RT-PCR; made in house; host or cells: DH5a bacteria (E. coli)
Source text: Sodium stibogluconate, suramin, sodium orthovanadate and GST fusion protein of SHP-1 have been described previously (Pathak et al., J. Immunol. 167, 3391 (2001)). Meglumine antimonate was obtained from Aventis. cDNAs of human PRL-1, PRL-2 and PRL-3 coding region were derived by RT-PCR from H9 cells (Safai, et al., Lancet 1, 1438 (1984)) and inserted in frame into the pGEX vector. cDNA of PRL-1R86 was generated by recombinant DNA technique using PRL-1 cDNA as template following established procedures (Jiao, et al., Mol. Cell. Biol. 16, 6985 (1996)). GST fusion proteins of the PRL phosphatases were prepared from DH5a bacteria transformed with the pGEX fusion protein constructs as described previously (Yi, et al., Mol. Cell. Biol. 12, 836 (1992)). cDNAs encoding the PRLs tagged at the N-termini with the Flag epitope (Castrucci, et al., J. Virol. 66, 4647 (1992)) were generated via recombinant DNA technique, sequenced to confirm their identities and cloned into the pBabepuro vector (Yang, et al., Blood 91, 3746 (1998)). Anti-Flag monoclonal antibody (M2, Sigma) was purchased from a commercial source. A synthetic phosphotyrosine peptide (Arg-Arg-Leu-Ile-Glu-Asp-Ala-Gle-Tyr-Al- -a-Ala-Arg-Gly (SEQ ID NO: 3), wherein the tyrosine is phosphorylated; UBI) and DiFMUP (6, 8-difluoro-4-methylumbelliferyl phosphate, Molecular Probes) were purchased as substrates for PTPase assays.
(§1) In vitro PTPase assays were used to determine the effects of compounds on recombinant PTPases, following established procedures using a synthetic phosphotyrosine peptide or DiFMUP as the substrate (Pathak et al., J. Immunol. 167, 3391 (2001)). Briefly, individual PTPases (0.1 μg/reaction) in 50 μL of PTPase buffer (50 mM Tris, pH 7.4) were incubated at 22° C. for 10 minutes or as indicated in the absence or presence of inhibitory compounds. Substrates (0.2 mM phosphotyrosine peptide) were then added and allowed to react at 22° C. for 18 hrs. PTPase activity of individual reactions was measured by adding 100 μL of malachite green solution (UBI) and then quantifying the amounts of free phosphate cleaved by the PTPase from the peptide substrate by spectrometry (OD660 nm). PTPase assays using DiFMUP as a substrate were conducted following a previously described procedure (Matter, et al., Biochem. Biophys. Res. Comm. 283, 1061 (2001)). Relative PTPase activities were calculated based on the formula: (PTPase activity in the presence of an inhibitory compound/PTPase activity in the absence of the compound)× 100%. To assess the reversibility of PTPase inhibition, GST fusion proteins of the PTPases bound on glutathione beads (Pharmacia) were pre-incubated with cold Tris buffer (50 mM Tris, pH 7.0) or Tris buffer containing the inhibitor at 4° C. for 30 minutes. The beads were then washed three times in cold Tris buffer or not washed prior to subjecting to in vitro PTPase assays.

SHP-1 = biological target: T2, SHP-1 (Mus musculus, UniProt P29351); assay: in vitro PTPase assay, GST/SHP-1; type: biochemical; conditions: for inhibitory activity against SHP-1: 3-4 μg/ml or 10-100 μg/ml
T2 construct: made in house
Method: In vitro PTPase activities were measured using the commercial protein tyrosine phosphatase assay kit (Upstate Biotechnology, Inc. (“UBI”)) following established procedure known to one of skill in the art. […] Briefly, 0.01 μg of GST/PTPase fusion proteins was incubated in 50 μl of Tris buffer (10 mM Tris, pH 7.4) containing different concentrations of inhibitors or chemicals (0-1,000 μg/ml) at 22° C. for 10 minutes, followed by addition of 0.2 mM of the phosphotyrosine peptide and incubation at 22° […] 100 μl of Malachite Green solution was added and incubated for 5 minutes, and the absorbance at 660 nm was measured after 5 minutes.
To assess the reversibility of inhibition of SHP-1 by PTPase inhibitors, GST/SHP-1 fusion protein bound on glutathione beads were pre-incubated in cold Tris buffer or Tris buffer containing the PTPase inhibitors at 4° C. for 30 minutes. The beads were then either subjected to in vitro PTPase assays or washed 3 times in Tris buffer then subjected to in vitro PTPase assays.
as §1, with “Briefly,” for “In vitro PTPase assays were used to determine the effects of compounds on recombinant PTPases, following established procedures using a synthetic phosphotyrosine peptide or DiFMUP as the substrate (Pathak et al., J. Immunol. 167, 3391 (2001)). Briefly,”, “PTPase assays using DiFMUP as a substrate were conducted following a previously described procedure (Matter, et al., Biochem. Biophys. Res. Comm. 283, 1061 (2001)).” left out

T2 sequence (P29351 whole entry): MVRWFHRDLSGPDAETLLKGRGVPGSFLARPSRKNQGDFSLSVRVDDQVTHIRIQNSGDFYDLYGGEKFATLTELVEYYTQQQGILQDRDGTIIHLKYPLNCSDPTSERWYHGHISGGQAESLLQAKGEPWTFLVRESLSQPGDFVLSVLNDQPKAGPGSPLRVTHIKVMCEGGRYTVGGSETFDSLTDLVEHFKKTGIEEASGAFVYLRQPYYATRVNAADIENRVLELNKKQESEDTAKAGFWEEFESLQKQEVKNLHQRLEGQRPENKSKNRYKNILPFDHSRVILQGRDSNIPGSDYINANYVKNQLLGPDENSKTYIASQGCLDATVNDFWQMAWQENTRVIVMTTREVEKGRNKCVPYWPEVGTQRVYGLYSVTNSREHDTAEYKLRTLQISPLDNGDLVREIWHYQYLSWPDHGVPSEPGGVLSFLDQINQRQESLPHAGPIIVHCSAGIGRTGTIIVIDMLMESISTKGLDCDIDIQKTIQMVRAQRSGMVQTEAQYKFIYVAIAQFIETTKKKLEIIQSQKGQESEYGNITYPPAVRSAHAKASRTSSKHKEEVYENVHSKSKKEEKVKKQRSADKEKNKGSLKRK
T1 sequence (O75365 whole entry): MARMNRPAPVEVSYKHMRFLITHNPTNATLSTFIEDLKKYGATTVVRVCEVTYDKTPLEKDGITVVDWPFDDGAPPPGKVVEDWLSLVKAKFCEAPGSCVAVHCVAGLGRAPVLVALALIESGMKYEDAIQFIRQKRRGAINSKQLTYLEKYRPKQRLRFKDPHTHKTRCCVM

Row | Compound | remaining PRL-3 PTPase activity (PRL-3) | inhibitory activity against SHP-1 (SHP-1) | inhibition of PRL-3 after washing (PRL-3) | inactivation of PRL-3 with prolonged pre-incubation (PRL-3; 10 μg/ml, pre-incubation 30 or 60 minutes) | activity of parental mixture against recombinant SHP-1 (SHP-1; Sb concentration of 10 μg/ml) | inhibition of GST/SHP-1 after washing (reversibility) (SHP-1; pre-incubated 30 min at 4 °C, beads washed 3 times)
1 | CC(=O)N1CCN(c2ccc(OCC3COC(Cn4ccnc4)(c4ccc(Cl)cc4Cl)O3)cc2)CC1 (centres unmarked) [ketoconazole] | 25-40% | no obvious inhibitory activity |  |  |  | 
2 | N=C(N)c1ccc(OCCCCCOc2ccc(C(=N)N)cc2)cc1 [pentamidine] | 20-30% | no obvious inhibitory activity |  |  |  | 
3 | O.O.O.O.O.O.O.O.O.O=C([O-])[C@@H]1[O][Sb]2([O-])([O][Sb]34([OH])[O][C@H]([C@H](O)CO)[C@H]([O]3)[C@H](C(=O)[O-])[O]4)[O][C@H]([C@H](O)CO)[C@@H]1[O]2.[Na+].[Na+].[Na+] [sodium stibogluconate] |  |  | not relieved by a washing process | nearly complete inactivation | inactivated SHP-1 | not affected by washing

— patent publication US20070202079A1, “Therapeutic compositions and methods useful in modulating protein tyrosine phosphatases” (priority 2006, published 2007)
